Measurements published in BigSolDB 2.1.

CNC(=O)c1cc(Oc2ccc(N)cc2)ccn1
solubility (mole fraction)
Details	in THF	in acetonitrile	in ethanol	in ethyl acetate	in methanol	in n-butanol	in n-propanol
278.15 K	0.0898	0.0273	0.00539	0.0528	0.00809	0.00322	0.00451
283.15 K	0.0978	0.0317	0.00707	0.0637	0.0117	0.0044	0.00593
288.15 K	0.108	0.0394	0.00914	0.0773	0.0158	0.00563	0.00778
293.15 K	0.118	0.0491	0.0136	0.0919	0.0203	0.00781	0.0111
298.15 K	0.129	0.0595	0.0179	0.11	0.0276	0.00986	0.0135
303.15 K	0.143	0.0737	0.0249	0.129	0.0369	0.0132	0.0181
308.15 K	0.158	0.0897	0.0331	0.151	0.0488	0.0171	0.0237
313.15 K	0.173	0.109	0.044	0.179	0.0634	0.0222	0.0308
318.15 K	0.192	0.133	0.0587	0.207	0.082	0.0287	0.0396
323.15 K	0.211	0.161	0.0764	0.238	0.105	0.0366	0.0503
328.15 K	0.233	0.195	0.0999	0.28	0.134	0.0466	0.0638
